Measurements: publication PMC8908490 (ACS Omega, 2022)

Legend:
[1] = tested on: interleukin-1β; conditions: cell-based interleukin-1β assay; cited from earlier work
[2] = cited from earlier work
[3] = HPLC-based chemical stability at different pH; conditions: for chemical stability (in words): acidic conditions, pH 1, 37 °C
[4] = target: human NLRP3-NACHT domain (Homo sapiens, UniProt Q96P20); conditions: presence of ADP
Chain of human NLRP3-NACHT domain (Q96P20 220-536 limits assumed): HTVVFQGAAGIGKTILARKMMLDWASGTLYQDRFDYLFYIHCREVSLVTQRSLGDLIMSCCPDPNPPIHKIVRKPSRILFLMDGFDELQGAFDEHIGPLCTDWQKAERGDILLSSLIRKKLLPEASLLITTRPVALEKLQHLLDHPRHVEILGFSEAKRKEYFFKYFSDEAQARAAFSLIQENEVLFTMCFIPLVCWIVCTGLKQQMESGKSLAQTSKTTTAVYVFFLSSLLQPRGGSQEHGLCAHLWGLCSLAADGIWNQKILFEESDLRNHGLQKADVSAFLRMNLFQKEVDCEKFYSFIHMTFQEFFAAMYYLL

Compound | chemical stability (in words) [3] | other results
CC(C)(O)c1coc(S(=O)(=O)NC(=O)Nc2c3c(cc4c2CCC4)CCC3)c1 [Compound 1, N-((1,2,3,5,6,7-Hexahydro-s-indacen-4-yl)carbamoyl)-4-(2-hydroxypropan-2-yl)furan-2-sulfonamide] |  | IC50 [1]: 7.5 nM; plasma half-life [2]: 3.27 h
CC(C)(O)c1csc(S(=O)(=O)NC(=O)Nc2c3c(cc4c2CCC4)CCC3)c1 [Compound 2, N-((1,2,3,5,6,7-Hexahydro-s-indacen-4-yl)carbamoyl)-4-(2-hydroxypropan-2-yl)thiophene-2-sulfonamide] | similarly stable | 
O=C(Nc1c2c(cc3c1CCC3)CCC2)NS(=O)(=O)c1ccco1 [Compound 3, N-((1,2,3,5,6,7-Hexahydro-s-indacen-4-yl)carbamoyl)furan-2-sulfonamide] | unstable | 
O=C(Nc1c2c(cc3c1CCC3)CCC2)NS(=O)(=O)c1cccs1 [Compound 4, N-((1,2,3,5,6,7-Hexahydro-s-indacen-4-yl)carbamoyl)thiophene-2-sulfonamide] |  | fold shorter half-life than benzene analogue ([3]; pH 1, 4 versus 8, 6 versus 9): 12 fold
CC(C)S(=O)(=O)NC(=O)Nc1c2c(cc3c1CCC3)CCC2 [Compound 5, N-((1,2,3,5,6,7-Hexahydro-s-indacen-4-yl)carbamoyl)propane-2-sulfonamide] | unstable | 
O=C(Nc1c2c(cc3c1CCCC3)CCCC2)NS(=O)(=O)c1ccccc1 [Compound 7, N-((1,2,3,4,5,6,7,8-Octahydroanthracen-9-yl)carbamoyl)benzenesulfonamide] | similarly unstable | NLRP3 binding by SPR (in words) [4]: total loss of binding ability
